Patent publication US20210038628A1, “NANOPARTICLE COMPOSITIONS” (JANUARY THERAPEUTICS, INC., priority 2018, published 2021)
pEC50: −log10 of the molar value. Where a name gives a salt, the structure may show the parent alone.

The molecules below were run on BxPC-3 (pancreatic adenocarcinoma) cell line (assay: Cellular proliferation assay in BxPC-3 cells (Cell-Titer Glo)). Settings: Homo sapiens, 120 hours incubation, Cell-Titer Glo luminescence.
Type: cell-based
Description: Compounds are tested for their ability to impair cancer cell proliferation and/or induce cell death. For cellular proliferation studies, cultured cells are treated with the test compound for 24-120 hours. After compound treatment, cell proliferation is assessed by using methods including, but not limited to, Cell-Titer-Glo® (Promega), Alamar Blue, LIVE/DEAD® (ThermoFisher), BrdU incorporation, and live-cell imaging. The cancer lines used include, but are not limited to BxPC-3 (pancreatic cancer). Gemcitabine Hydrochloride serves as a control for activity.
BxPC-3 (pancreatic adenocarcinoma) cell line was purchased from the American Type Culture Collection (Catalog #CRL-1687) and grown in RPMI-1640 medium (e.g. Corning #10-040-CV) with 10% Heat Inactivated Fetal Calf Serum at 37° C. and 5% CO2 (as recommended by the ATCC).
Cultures were grown in […] plates to 80% confluence, and cells were trypsinized to a single-cell suspension. Cells were then resuspended in growth medium to a density of […]. They were then plated into 96-well assay plates (Corning #3917) in a volume of 100 ul/well (2,500 cells/well). Cells were allowed to adhere to plates for 24 h at 37° C. and 5% CO2). Compounds were then added to the wells using an […] serial dilution scheme (over 9 dilutions, generally ranging from 30 μM-30 pM), and the cells were incubated for an additional 120 hours. After 120 h, 90 ul of Cell-Titer Glo reagent (Promega #G7572) was added, and the plates were read using a luminescence counter (e.g., BioTek Synergy HTX at 100 ms read time).

pEC50	Structure (SMILES)
8.00 to 9.00	CCCCCCCCCCCCC(=O)O[C@@H]1[C@@H](COP(=O)(OCOC(=O)CC(C)(C)C)OCOC(=O)CC(C)(C)C)O[C@@H](n2ccc(N)nc2=O)C1(F)F [Compound 17]
> 9.00	CCCCCCCCCCCCCCC(=O)OC1[C@@H](COP(=O)(OCOC(=O)CC(C)(C)C)OCOC(=O)CC(C)(C)C)O[C@@H](n2ccc(N)nc2=O)C1(F)F (stereo partly shown) [Compound 27]
8.00 to 9.00	Nc1ccn([C@@H]2O[C@H](CO)[C@@H](O)C2(F)F)c(=O)n1 [Gemcitabine Hydrochloride, reference compound]

Structure (SMILES)	pEC50
CCCCCCCCCCCCCCCCCCC(=O)O[C@@H]1[C@@H](COP2(=O)OCc3ccccc3O2)O[C@@H](n2ccc(N)nc2=O)C1(F)F (stereo partly drawn) [Compound 16, (2R,3R,5R)-5-(4-amino-2-oxopyrimidin-1(2H)-yl)-4,4-difluoro-2-(((2-oxido-4H-benzo[d][1,3,2]dioxaphosphinin-2-yl)oxy)methyl)tetrahydrofuran-3-yl Nonadecanoate]	> 9.00
